Results as given in patent US20210369677A1, “SMALL MOLECULE ACTIVATORS OF POLYCYSTIN-2 (PKD2) AND USES THEREOF” (Northwestern University, priority 2020, published 2021).

Tested on: polycystin-2L1
Assay type: cell-based
Conditions: for Effect of extracellular reducing agents on polycystin-2L1 current: WT polycystin-2L1
Method: Electrophysiology. Ciliary ion currents were recorded using borosilicate glass electrodes polished to resistances of 14-22 MΩ using the cilium patch method previously described^32. Whole cell electrodes used to measure poly cystin-2L1 currents were fire polished to 1.5-4 MΩ resistances. Unless otherwise stated, whole cilia ionic currents were recorded in symmetrical [Na^+]. The pipette standard internal solution contained (in mM): 90 NaMES, 10 NaCl, 10 HEPES, 10 Na4-BAPTA (Glycine, N, N′-[1,2-ethanediylbis(oxy-2,1-phenylene)]bis[N-(carboxymethyl)]-,tetrasodium); pH was adjusted to 7.3 using NaOH. Standard bath solution contained 140 NaCl, 10 HEPES, 1.8 CaCl2); pH 7.4. All solutions were osmotically balanced to 295 (±6) mOsm with mannitol. Extracellular solutions containing TCEP and GSH were used within six hours of formulation. Data were collected using an Axopatch 200B patch clamp amplifier, Digidata 1440A, and pClamp 10 software. Whole-cilium and excised patch currents were digitized at 25 kHz and low-pass filtered at 10 kHz. In the whole cilium configuration, the holding potential was −60 mV and then depolarized using a 400 ms voltage ramp from −100 mV to 100 mV. The whole cell recordings of polycystin-2L1 currents were either activated by the same ramp protocol or by 100 ms depolarizations to 100 mV from a −100 mV holding potential. External conditions were controlled using a Warner Perfusion Fast-Step (SF-77B) system in which the patched cilia and electrode were held in the perfusate stream. Data were analyzed by Igor Pro 7.00 (Wavemetrics, Lake Oswego, Oreg.). The polycystin-2 open probability and the polycystin-2L1 tail current-voltage relationships were fit to a Boltzmann function, f(x)=1/(1+exp[V−V1/2]/k) to estimate voltage of half-maximal activation of current (V1/2).

| SMILES | Block of polycystin-2L1 currents by trivalent ions (10 μM, plasma membrane of HEK cells) | Effect of extracellular reducing agents on polycystin-2L1 current |
| --- | --- | --- |
| [Gd] [gadolinium] | blocked |  |
| O=C(O)CCP(CCC(=O)O)CCC(=O)O [TCEP, tris-2-carboxyethyl phosphine] |  | near complete loss of current |
| N[C@@H](CCC(=O)N[C@@H](CS)C(=O)NCC(=O)O)C(=O)O [GSH, reduced glutathione] |  | near complete loss of current |
